Test results taken from EP0623343A1, “Ketamine analogues for the treatment of thrombocytopenia” (GENENTECH, INC., priority 1993, dated 1994).
Read-outs that look alike come from different tables or passages of the source.

Key:
[1] = test system: CMK cells; experiment: CMK assay for thrombopoietin (TPO) induction of platelet antigen GPIIbIIIa expression; settings: for minimal effective concentration: Homo sapiens, CMK; for CMK: Thrombopoietic activity, concentration at which active
[2] = test system: DAMI cells; experiment: DAMI assay measuring endomitotic activity (polyploidization) of DAMI cells; settings: for DAMI: Thrombopoietic activity, concentration at which active
[3] = Thrombopoeitic activity in various assays (not specified further); settings: for thrombopoeitic activity in various assays: no activity at concentrations as high as 200 µM
[4] = test system: C57BL6 mice; experiment: Thrombopoietin (TPO) in vivo assay (Mouse Platelet Rebound Assay); settings: @ 2 mg/mouse/d; IP injections on days 5 and 6 after anti-platelet serum
Experimental: Thrombopoietin (TPO) in vivo assay (Mouse Platelet Rebound Assay)
In vivo Assay for ³⁵S Determination of Platelet Production
C57BL6 mice (obtained from Charles River) were injected intraperitoneally (IP) with 1 ml goat anti-mouse platelet serum (6 amps) on day 1 to produce thrombocytopenia. On days 5 and 6, mice were given two IP injections of the factor or PBS as the control. On day 7, thirty µCi of Na₂³⁵SO₄ in 0.1 ml saline were injected intravenously and the percent ³⁵S incorporation of the injected dose into circulating platelets was measured in blood samples obtained from treated and control mice. Platelet counts and leukocyte counts were made at the same time from blood obtained from the retro-orbital sinus.

[5] = after 1-2 weeks treatment; patient had 37,000-58,000/µl before; cited from earlier work
[6] = read-out: CMK(µM), Thrombopoietic activity, concentration at which active, 'inactive @200' given as >200
[7] = read-out: DAMI(µM), Thrombopoietic activity, concentration at which active, 'inactive @200' given as >200
[8] = read-out: active at concentration in the CMK assay
[9] = read-out: active / inactive at concentration in the DAMI assay
[10] = read-out: active at concentration in the DAMI assay

SMILES	minimal effective concentration [1, 6]	minimal effective concentration [2, 7]	minimal effective concentration [1, 8]	also measured
O=C1C=CC(=O)c2ccccc21 [1,4-naphthoquinone, reference compound]	< 6 µM	> 200 µM	–	–
CC(=O)NC1(c2ccccc2Cl)CCC=CC1=O (stereo not shown) [VI, 6-acetylamino-6-(2-chlorophenyl)-2-cyclohexen-1-one]	6 µM	12 µM	–	thrombopoeitic activity compared with 5,6-dehydronorketamine ([3]; N-acylated derivative): even more active
CNC1(c2ccccc2Cl)CCCCC1=O (stereo not shown) [ketamine (III), 2-(2-chlorophenyl)-2-(methylamino) cyclohexanone, reference compound]	> 200 µM	> 200 µM	–	thrombopoeitic activity in various assays [3]: > 200 µM
NC1(c2ccccc2Cl)CCC=CC1=O (stereo not shown) [V, 6-amino-6-(2-chlorophenyl)-2-cyclohexen-1-one]	6 µM	–	15 µM	In vivo(% ctl.@ mg/mouse/d) [4]: 131 @ 2 % ctl.; DAMI ([2]; 'inactive @200' given as >200): 25 µM; minimal effective concentration [2, 9]: 30 µM
NCC(=O)NC1(c2ccccc2Cl)CCC=CC1=O (stereo not shown) [EXAMPLE IV, 6-(2-aminoacetyl)amino-6-(2-chlorophenyl)-2-cyclohexen-1-one]	–	–	6 µM	minimal effective concentration [2, 10]: 6 µM
NC1(c2ccccc2Cl)CCC=CC1=O (single isomer, unassigned; (+)) [(+)-V, (+)-6-amino-6-(2-chlorophenyl)-2-cyclohexen-1-one]	–	–	–	active at concentration in the CMK assay [1]: 6 µm; CMK ([1]; 'inactive @200' given as >200): 6 µM; DAMI ([2]; 'inactive @200' given as >200): 12 µM
NC1(c2ccccc2Cl)CCC=CC1=O (single isomer, unassigned; (-)) [(-)-V, (-)-6-amino-6-(2-chlorophenyl)-2-cyclohexen-1-one]	–	–	6 µM	CMK ([1]; 'inactive @200' given as >200): 6 µM; DAMI ([2]; 'inactive @200' given as >200): 12 µM; minimal effective concentration [2, 10]: 6 µM
NC1(c2ccccc2Cl)CCCCC1=O (stereo not shown) [IV, 2-(amino)-2-(2-chlorophenyl) cyclohexanone, reference compound]	> 200 µM	> 200 µM	–	thrombopoeitic activity in various assays [3]: > 200 µM
O=C1C=CCCC1 [cyclohexenone, reference compound]	200 µM	200 µM	–	–
O=C(CCCC[C@@H]1SC[C@@H]2NC(=O)N[C@@H]21)NC1(c2ccccc2Cl)CCC=CC1=O (stereo partly shown) [VII, 6-biotinoylamino-6-(2-chlorophenyl)-2-cyclohexen-1-one]	12 µM	25 µM	–	–
Cc1nnc2n1-c1sc(CCC(=O)N3CCOCC3)cc1C(c1ccccc1Cl)=NC2 [WEB 2086, 4-(2-chlorphenyl)-9-methyl-2-[3-(4-morpholinyl)-3-propanon-1-yl]6H-thieno[3,2,f][1,2,4]triazolo[4,3,a,][1,4] diazepin, reference compound]	> 200 µM	> 200 µM	–	platelet counts [5]: 140,000-190,000 /µl; minimal effective concentration [2, 9]: > 200 µM
CSCCC(=O)NC1(c2ccccc2Cl)CCC=CC1=O (stereo not shown) [EXAMPLE V, 6-(2-chlorophenyl)-6-(3-(methylthio)propanoyl)amino-2-cyclohexen-1-one]	–	–	6 µM	–
